#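 How tested: cells in 96-well plates exposed to compound for 48 hours at five concentrations. GI50: concentration for 50% inhibition of growth. TGI is the concentration that stops growth completely.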
# Assays:
# Assay in all cases: inhibition of tumour cell growth, NCI panel, 48 h
# COLO 205 colon = tested on: COLO 205 colon
# DU-145 prostate = tested on: DU-145 prostate
# HCT-15 colon = tested on: HCT-15 colon
# M14 melanoma = tested on: M14 melanoma
# MALME-3M melanoma = tested on: MALME-3M melanoma
# SF-268 CNS = tested on: SF-268 CNS
# SF-539 CNS = tested on: SF-539 CNS
# SR leukemia = tested on: SR leukemia
# SW-620 colon = tested on: SW-620 colon
# RPMI-8226 leukemia = tested on: RPMI-8226 leukemia
SMILES,GI50 (COLO 205 colon),TGI (COLO 205 colon),GI50 (DU-145 prostate),TGI (DU-145 prostate),GI50 (HCT-15 colon),TGI (HCT-15 colon),GI50 (M14 melanoma),TGI (M14 melanoma),GI50 (MALME-3M melanoma),TGI (MALME-3M melanoma),GI50 (SF-268 CNS),TGI (SF-268 CNS),GI50 (SF-539 CNS),TGI (SF-539 CNS),GI50 (SR leukemia),TGI (SR leukemia),GI50 (SW-620 colon),TGI (SW-620 colon),GI50 (RPMI-8226 leukemia),TGI (RPMI-8226 leukemia)
CC1=C(C(=O)OCc2ccccc2)C(c2ccc3c(c2)OCO3)n2c(nc3ccccc32)N1 (centres undefined),0.417 µM,> 100 µM,0.488 µM,> 100 µM,0.36 µM,> 100 µM,0.418 µM,> 100 µM,0.37 µM,> 100 µM,0.513 µM,> 100 µM,0.34 µM,> 100 µM,0.4 µM,> 100 µM,0.346 µM,> 100 µM,,
CCc1c(C)[nH]c(/C=C2\N=C(c3ccc[nH]3)C=C2OC)c1C,0.268 µM,1.88 µM,0.219 µM,11 µM,0.0935 µM,3.75 µM,0.256 µM,2.99 µM,0.474 µM,2.05 µM,0.224 µM,11.3 µM,0.448 µM,2.16 µM,,,,6.56 µM,0.0239 µM,1.05 µM
CCOP(=O)(OCC)C1CCCCOC1=O (centres undefined),,> 100 µM,,,,> 100 µM,,> 100 µM,,> 100 µM,,> 100 µM,,> 100 µM,,,,> 100 µM,,> 100 µM
Cc1ccc2[nH]c(C(=O)NN3C(=O)CSC34CCCCC4C)c(-c3ccccc3)c2c1 (centres undefined),20.4 µM,48.9 µM,18.2 µM,44.1 µM,18 µM,39.1 µM,19.5 µM,37.7 µM,17.3 µM,35.6 µM,17.2 µM,37.4 µM,19.5 µM,38.4 µM,,,23.8 µM,60.1 µM,13.8 µM,35.2 µM
Nc1nc(/C=C\c2ccc([N+](=O)[O-])o2)nc(N2CCN(c3ccccc3)CC2)n1,2.88 µM,21.9 µM,3.9 µM,41.4 µM,2.77 µM,11.9 µM,4.01 µM,26.7 µM,,,11.7 µM,> 100 µM,16.7 µM,34 µM,3.59 µM,83 µM,4.6 µM,> 100 µM,3.62 µM,> 100 µM
COc1cccc(OC(=O)c2ccccc2Nc2ccnc(C(F)(F)F)c2)c1,2.22 µM,5.13 µM,,,2.81 µM,12 µM,1.36 µM,4.04 µM,,,4.65 µM,26.7 µM,,,,,4.37 µM,> 100 µM,1.01 µM,3.86 µM
CN1CCc2c1nc(-c1ccccc1)c1c2N(C)CC1,,> 100 µM,,,,> 100 µM,,> 100 µM,,> 100 µM,,> 100 µM,,> 100 µM,,,,> 100 µM,,> 100 µM
COc1cc2nc(Cl)nc(Nc3cccc(C(=O)/C=C/c4ccccc4)c3)c2cc1OC,11.4 µM,> 100 µM,> 48.8 µM,> 100 µM,2.88 µM,> 100 µM,5.01 µM,> 100 µM,,,4.99 µM,81.4 µM,3.82 µM,19.2 µM,,,2.79 µM,> 100 µM,0.622 µM,3.48 µM
NCC1(N2CCOCC2)C2CCCC21CO (centres undefined),,> 100 µM,,,,> 100 µM,,> 100 µM,,> 100 µM,,> 100 µM,,> 100 µM,,> 100 µM,,> 100 µM,,> 100 µM
O=C(CCn1[nH]c(=O)c(Cl)c(Cl)c1=O)NOCCCc1ccccc1,,,,,,> 100 µM,,> 100 µM,,> 100 µM,,> 100 µM,,> 100 µM,,> 100 µM,,> 100 µM,,> 100 µM
CC(=O)[O][Pb]([O]C(C)=O)([c]1ccccc1)[c]1ccccc1,1.76 µM,15 µM,,,7.06 µM,> 100 µM,> 48 µM,> 100 µM,> 100 µM,> 100 µM,3.29 µM,16.6 µM,13.3 µM,> 100 µM,6.22 µM,> 100 µM,5.42 µM,> 100 µM,4.12 µM,> 100 µM
O=C1c2ccccc2C(=O)N1CC1(C(=O)O)NCCS1(=O)=O (centres undefined),,> 100 µM,,,,> 100 µM,,> 100 µM,,> 100 µM,,> 100 µM,,> 100 µM,,> 100 µM,,> 100 µM,,> 100 µM
CSc1nnc(CCSc2ccnc3c(C(F)(F)F)cccc23)o1,> 100 µM,> 100 µM,> 100 µM,> 100 µM,> 100 µM,> 100 µM,,,> 100 µM,> 100 µM,71.5 µM,> 100 µM,60.6 µM,> 100 µM,,,> 100 µM,> 100 µM,33.5 µM,> 100 µM
Cc1ccc(C(=O)Nc2ccc(S(=O)(=O)O)c3cc(S(=O)(=O)O)cc(S(=O)(=O)O)c23)cc1NC(=O)c1cccc(N)c1,,> 100 µM,,,,> 100 µM,,> 100 µM,,> 100 µM,,> 100 µM,,> 100 µM,,> 100 µM,,> 100 µM,,
Nc1ncnc2sc(=S)c3c(c12)CCC3,25.1 µM,62.6 µM,19.1 µM,57.4 µM,38.2 µM,> 100 µM,42.7 µM,> 100 µM,66.4 µM,> 100 µM,26.9 µM,75.6 µM,17 µM,52.8 µM,,,33.5 µM,> 100 µM,16.8 µM,55.3 µM
COc1ccccc1[N-]C(C1=C([O-])c2ccccc2C1=O)c1ccccc1.COc1ccccc1[N-]C(C1=C([O-])c2ccccc2C1=O)c1ccccc1.[Cu+2] (centres undefined),3.95 µM,30 µM,,,6.51 µM,> 100 µM,4.58 µM,> 100 µM,6.85 µM,> 100 µM,5.3 µM,> 100 µM,3.82 µM,15.1 µM,8.58 µM,> 100 µM,6.08 µM,> 100 µM,3.9 µM,> 100 µM

# Reference: PubChem BioAssay (NCI)
